Columns and labels:
MDA-MB-231 cells [1] = assay: BrdU cell proliferation ELISA; format: cell-based, human; conditions: 24 and 48 hours
Procedure: (§1) BrdU Cell Proliferation ELISA: Used to quantitate cell proliferation based on the measurement of Brdu incorporation during DNA synthesis in proliferating cells. At the end of 24 and 48 hours of treatment, cells were labeled with BrdU, fixed, denatured, and then incubated with Anti-BrdU POD. Absorbance was measured at 405 nm.

MCF-7 cells [2] = assay: BrdU cell proliferation ELISA; format: cell-based, human; conditions: 24 and 48 hours
Procedure: as §1

MDA-MB-231 cells [3] = assay: TUNEL assay and flow cytometry (apoptosis); format: cell-based, human
Procedure: (§2) TUNEL Assay and Flow Cytometry: After incubation with alpha-santalol, cells were fixed with paraformaldehyde and ethanol. DNA strand breaks were labeled with BrdUTP. Brdu incorporation at DNA strand breaks was detected by Alexa Fluor 488 dye-labeled anti-BrdU antibodies. Samples were analyzed by Flow Cytometry.

MCF-7 cells [4] = assay: TUNEL assay and flow cytometry (apoptosis); format: cell-based, human
Procedure: as §2

[5] = Penetration of α-santalol into porcine mammary papilla without keratin plug removal (Experiment 25); format: in vitro ADME; conditions: value (SEM), n=3
Procedure: Experiment procedure—Mammary papillae were setup in FSD and kept for saturation for 12 hours. Then 500 μl of drug formulation was added in the donor. Three 200 μl samples of donor were taken to determine GCMS area of donors. Now 200 μl samples were collected from the receptor on each time point. […] Results may be seen in FIG. 51 and Table 33.

MDA-MB-231 cells [6] = assay: Western blotting of apoptotic proteins; format: cell-based, human; conditions: 12, 24 or 48 hours
Procedure: (§3) Western Blotting: Cells were treated with various concentrations of α-santalol and incubated for 12, 24 or 48 hours. Cell lysates were made and subjected to western blot analysis to determine the expression of different proteins.

MCF-7 cells [7] = assay: Western blotting of apoptotic proteins; format: cell-based, human; conditions: 12, 24 or 48 hours
Procedure: as §3

MDA-MB-231 cells [8] = assay: MTT assay (cell viability); format: cell-based, human; conditions: different concentrations and time points
Procedure: (§4) MTT Assay: After treatment with different concentrations of α-santalol for different time points, cells were incubated with MTT and subsequently solubilized in DMSO. Absorbance was measured at 570 nm.

MCF-7 cells [9] = assay: MTT assay (cell viability); format: cell-based, human; conditions: different concentrations and time points
Procedure: as §4

MDA-MB-231 cells [10] = assay: Cell cycle analysis, propidium iodide flow cytometry; format: cell-based, human; conditions: 25 μM-75 μM, 12 hours
Procedure: (§5) Cell Cycle Analysis: After 12 hours of treatment with alpha-santalol, cells were fixed with 70% ethanol in PBS, treated with RNaseA, followed by staining with propidium iodide. Cells were analyzed by flow cytometry to determine cell-cycle distribution.

MCF-7 cells [11] = assay: as above; format: cell-based, human; conditions: 25 μM-75 μM, 12 hours
Procedure: as §5

[12] = Topical transmammary delivery of tamoxifen with and without α-santalol via porcine mammary papilla (Experiment 27); format: in vitro ADME; conditions: given in combination with α-santalol
Procedure: From the receptor, 200 μl samples were taken at every time point. After 48 hours, tissues were taken, washed, cut in four sections, weighed and solubilized using the tissue solubilizer. After 24 hours, DPM counts were measured from each section of the tissue using scintillation cocktail.

[13] = 6 hours treatment 48 h disposition study

Row | Tissue retention ([5]; 5% v/v in 2:1 ethanol:PBS, 6 h treatment) | Tissue retention [5, 13] | Tissue retention (% of applied dose) [5, 13] | Tissue retention (% of applied dose) ([5]; 6 h treatment) | Tissue retention ([5]; 48 h treatment) | Tissue retention (% of applied dose) ([5]; 48 h treatment) | Applied dose retained by the tissue [12] | SMILES | Cell proliferation (BrdU ELISA) (MDA-MB-231 cells [1]) | Cell proliferation (BrdU ELISA) (MCF-7 cells [2]) | Apoptosis (TUNEL, flow cytometry) (MDA-MB-231 cells [3]) | Apoptosis (TUNEL, flow cytometry) (MCF-7 cells [4]) | Cleavage of apoptotic proteins (western blot) (MDA-MB-231 cells [6]) | Cleavage of apoptotic proteins (western blot) (MCF-7 cells [7]) | Cell viability (MTT) (MDA-MB-231 cells [8]) | Cell viability (MTT) (MCF-7 cells [9]) | Cell cycle distribution (MDA-MB-231 cells [10]) | Cell cycle distribution (MCF-7 cells [11])
1 | 5.21 (0.41) μmole/g tissue | 5.34 (0.52) μmole/g tissue | 2.01 (0.12) % of applied dose | 2.20 (0.19) % of applied dose | 35.52 (3.69) μmole/g tissue | 15.30 (2.20) % of applied dose |  | C/C(=C/CCC1(C)C2CC3C(C2)C31C)CO (stereo not drawn) [alpha-santalol] | inhibition of cell viability and proliferation in a time and dose-dependent manner | inhibition of cell viability and proliferation in a time and dose-dependent manner | significantly induced apoptosis | significantly induced apoptosis | caspase-3 and PARP cleavage | PARP cleavage | inhibition of cell viability and proliferation in a time and dose-dependent manner | inhibition of cell viability and proliferation in a time and dose-dependent manner | arrested cell cycles at the G2/M phase | arrested cell cycles at the G2/M phase
2 |  |  |  |  |  |  | approximately 40% | CC/C(=C(\c1ccccc1)c1ccc(OCCN(C)C)cc1)c1ccccc1 [tamoxifen] |  |  |  |  |  |  |  |  |  | 
